Results from paper doi:10.1101/2025.02.17.638454, “Synergistic RAS-MAPK and AKT Activation in MYC-Driven Tumors via Adjacent PVT1 Rearrangements” (bioRxiv, 2025).
No end group written: not given here.

Tests used:
MYC [1] = assay: q-RT-PCR of MYC transcript in COLO-320DM; assay type: cell-based, human; conditions: COLO320DM, induction of HNB (-/+ Dox); n=3, unpaired t-test, 0.0011
Description: (§1) Total RNA was extracted with the TRIzol (Roche, Indianapolis, IN) as described by the manufacturer and complementary DNA synthesis, 1 μg of total RNA was reverse transcribed by using the GoScriptTM Reverse Transcription Mix, Random Primer Protocol (Promega, Madison, WI). Real-time PCR was run in triplicate using PowerUpTM SYBRTM Green Master Mix (Thermo Fisher Scientific), following the manufacturer’s instructions. Real-time PCR amplification monitoring was performed using the CFX96 Touch Real-Time PCR Detection System (Bio-Rad). Data were expressed as relative mRNA levels normalized to the GAPDH, served as endogenous normalization control expression levels in each sample, and are represented as mean ± standard error of the mean between 2 independent experiments unless otherwise indicated in the figure legend. The primer sequences are listed in the Supplementary Table.
(§2) The HNB ORF and eGFP (control) were cloned in an inducible lentivirus expression, TRE-gateway plasmid (pLIX_403, Addgene, #41395). Lentivirus was produced in HEK293T cells using the protocol described above. […] The protein lysates were collected and quantified using the previously described protocol. […] Bound proteins were detected with horseradish-peroxidase–conjugated secondary antibodies (Cell Signaling Technologies) and SuperSignal West Femto (Thermo Fisher Scientific). […]

MYC [2] = assay: q-RT-PCR of MYC transcript in D458; assay type: cell-based, human; conditions: D458, induction of HNB (-/+ Dox); n=3, unpaired t-test
Description: as §1, §2

[3] = test system: phospho-MEK1/2, phospho-ERK1/2, phospho-p90RSK (RAS/MAPK pathway); assay: Western blot of RAS/MAPK effectors in D458; assay type: cell-based
Description: (§3) For whole-cell lysate, the cell pellet was resuspended in RIPA buffer (Cell Signaling Technologies, Danvers, MA) supplemented with a protease inhibitor cocktail (Cell Signaling Technologies) and incubated on ice for 20 minutes. The lysate was then centrifuged at 14,000 revolutions/minute for 10 minutes at 4°C, and the supernatant was harvested. Protein concentration was quantified by BCA Protein Assay Kit (Thermo Fisher Scientific) as per kit protocol. Next, 20 μg of whole-cell lysate was electrophoresed on a 4%–20% gradient polyacrylamide gel with SDS (Bio-Rad, Hercules, CA) and electroblotted onto polyvinylidene difluoride membranes (Bio-Rad). Membranes were blocked in Tris-buffered saline with 5% nonfat milk and 0.1% Tween and probed with antibodies. Bound proteins were detected with horseradish-peroxidase–conjugated secondary antibodies (Cell Signaling Technologies) and SuperSignal West Femto (Thermo Fisher Scientific). […]
The HNB ORF and eGFP (control) were cloned in an inducible lentivirus expression, TRE-gateway plasmid (pLIX_403, Addgene, #41395). […] The protein lysates were collected and quantified using the previously described protocol. […] Bound proteins were detected with horseradish-peroxidase–conjugated secondary antibodies (Cell Signaling Technologies) and SuperSignal West Femto (Thermo Fisher Scientific). […]

HALLMARK_MYC_TARGETS = assay: GSEA MYC targets, SK-PN-DW; assay type: cell-based, human; conditions: si.CircPVT1 vs si.Ctrl, n=3, Padj = 0.010
From the text: RNAseq processing: Raw reads were mapped to the hg19 human reference genome using the STAR aligner (v.2.5.0a) 66. PCR-duplicated reads and low mapping quality reads (MQ score below 20) were removed using Picard tools and SAMtools, respectively. Aligned reads were counted using htseq-count (v.0.6.1p1) 69 and normalized according to size factors method from DESeq2 70. We used fold change ≥2 and FDR <0.05 as the determination of differentially expressed genes (DEG). […]
Supplementary Figure 9: Gene set enrichment analysis scores (GSEA) analysis for MYC targets genes in COLODM320 (A,B) and SK-PN-DW (C,D) treated with si.CircPVT 1. si.Ctrl was used as control . n=3, for each treatment condition .
(also on this page, place not known: Enrichment Score Enrichment Score si.CircPVT1. control. condition. Enrichment Score Enrichment Score .CC-BY licenseavailable preprintthis https://doi.org/10.1101/2025.02.17.638454doi:) […]

FFX = assay: Western blot of FFX in D458; assay type: cell-based, human; conditions: D458, siRNA vs si.Ctrl, anti-FFX antibody
Description: as §3

In the case of MKTQLGAVKGFLHV [HNB], the “MYC mRNA level” value (MYC [1]) is reported as “significantly reduced MYC expression at the mRNA as well as the protein levels”, the “MYC mRNA level” value (MYC [2]) is reported as “significantly reduced MYC expression at the mRNA as well as the protein levels” and the “phosphorylation of MEK1/2, ERK1/2 and p90RSK” value ([3]; D458 (wild type KRAS), doxycycline-induced HNB, 1 μg/mL Dox 48 h, n=3, unpaired t-test) is reported as “significantly dampened the phosphorylation”. The ERK1/2 phosphorylation ([3]; D458, ectopic (doxycycline-inducible) expression, HNB vs mutant, Figure 5L) was “significantly diminished ERK1/2 phosphorylation”.

For “si.CircPVT1: siRNA targeting the junction sequence of CircPVT1, 5’-UGGGCUUGAGGCCUGAUCUUU-3’ (other strand not given here)”, the “NES, HALLMARK_MYC_TARGETS_V1” value (HALLMARK_MYC_TARGETS) was -1.653, the “NES, HALLMARK_MYC_TARGETS_V2” value (HALLMARK_MYC_TARGETS) was -1.789 and the FFX protein expression (FFX) was “significantly reduced the protein”.
